{
  "source": "patent US20160030407A1",
  "about": "“Method of Treating Inflammatory Lung Disease” (priority 2010, published 2016)",
  "key": {"NFκB": {"system": "NFκB", "assay": "NFκB luciferase assay (inhibition of TNFα-induced NFκB activity)", "assay_type": "cell-based, Human", "method": "The smokeless tobacco used in these experiments was plain long-leaf Copenhagen tobacco purchased from a local vendor. Crude extract was extracted with methanol and water and clarified by centrifugation and filtration. The alkaloid extract was prepared from sodium hydroxide and methanol extraction, organic phase separation and purification. All treatment samples were prepared as a function of weight (μg/ml), and all samples were diluted in DMSO.\nHuman […] kidney cells (HEK293) transfected with an NFκB luciferase reporter were challenged with TNFα for three hours, then samples were applied to the challenged cells.\nThe effect of S-(−)-anatabine on TNFα-induced NFκB activity in vitro was determined as described in Example 1."}, "[1]": {"assay": "Single i.v. dose toxicity: body weights and food consumption", "assay_type": "in vivo, Sprague-Dawley rats", "conditions": "for Mean food consumption/day: 14 days, 0.1 mg/kg", "method": "Body weight and food consumption was measured daily for 14 days. On day 15, urine was collected on all surviving animals. The animals were euthanized and bled via cardiac puncture, and blood was collected for analysis. Tissues were collected, weighed, evaluated for gross abnormalities, and stored in 10% neutral-buffered formalin.\nAll animals were observed daily."}, "[2]": {"assay": "Single i.v. dose toxicity: urinalysis", "assay_type": "in vivo, Sprague-Dawley rats", "conditions": "for Urinalysis KETONES / Urinalysis BILIRUBIN / Urinalysis BLOOD / Urinalysis PROTEIN / Urinalysis pH / Urinalysis CLARITY / Urinalysis COLOR / Urinalysis GLUCOSE / Urinalysis UROBILINOGEN / Urinalysis VOLUME: individual animals M and F", "text": "(§1) On day 15, urine was collected on all surviving animals for urinalysis. The animals were euthanized and bled via cardiac puncture. Blood was collected for hematology, clinical chemistry, and coagulation analysis. Tissues were collected, weighed, and stored in 10% neutral-buffered formalin for possible future analysis."}, "[3]": {"assay": "Physical signs after single i.v. dose (Example 3)", "assay_type": "in vivo, Sprague-Dawley rats", "conditions": "rat, nicotine 0.4 mg/kg, anatabine 0.10, 0.75, 1.0 mg/kg", "method": "Four aliquots of each dose level formulation were collected and stored at −80° C. The test compound, corresponding dose level, number of animals, and sample collection times for Phase I of the study are shown in Table 3. The test compound, corresponding dose level, number of animals, and sample collection times for Phase II of the study are shown in Table 4. The physical signs of each animal were monitored following administration of the test compound."}, "nAChR α7": {"target": "T1, nAChR α7 (Homo sapiens, UniProt P36544)", "T1 construct": "host or cells: CHO cells coexpressing RIC-3", "T1 sequence (P36544 23-502)": "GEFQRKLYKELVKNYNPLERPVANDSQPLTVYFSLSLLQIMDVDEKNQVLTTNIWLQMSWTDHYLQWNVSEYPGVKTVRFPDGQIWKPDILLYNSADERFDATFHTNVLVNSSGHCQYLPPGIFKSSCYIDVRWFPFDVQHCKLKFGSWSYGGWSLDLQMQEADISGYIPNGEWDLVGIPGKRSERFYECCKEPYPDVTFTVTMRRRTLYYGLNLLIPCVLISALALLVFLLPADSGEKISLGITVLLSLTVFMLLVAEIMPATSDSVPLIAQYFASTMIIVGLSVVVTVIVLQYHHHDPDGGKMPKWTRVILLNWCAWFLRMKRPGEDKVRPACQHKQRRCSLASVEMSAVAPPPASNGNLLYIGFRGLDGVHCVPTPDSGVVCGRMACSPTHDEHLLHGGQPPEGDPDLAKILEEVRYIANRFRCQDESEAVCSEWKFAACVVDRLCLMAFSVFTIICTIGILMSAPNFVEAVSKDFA", "assay": "nAChR α7 channel agonist assay (FLIPR)", "assay_type": "cell-based", "conditions": "in presence of PNU-120596; maximal stimulation not achieved", "method": "Briefly, cells were incubated with […] dye for 30 min at 37° C.\nTherefore, the assay of agonist activity for either Ach or for the test articles was conducted in the presence of the positive allosteric modulator."}, "[4]": {"assay": "Single i.v. dose toxicity: hematology", "assay_type": "in vivo, Sprague-Dawley rats", "conditions": "0.1 mg/kg, group mean", "text": "as §1"}, "[5]": {"conditions": "Anatabine 0.1 mg/kg, F, individual rats"}, "[6]": {"conditions": "Anatabine 0.1 mg/kg, M, individual rats"}, "[7]": {"conditions": "Anatabine 0.75 mg/kg, F, individual rats"}, "[8]": {"conditions": "Anatabine 0.75 mg/kg, M, individual rats"}, "[9]": {"conditions": "single i.v. 0.1 mg/kg, male rats"}, "[10]": {"conditions": "Anatabine dose 0.1 mg/kg, 0.1 mg/kg, female rats"}, "[11]": {"conditions": "Anatabine dose 0.1 mg/kg, 0.1 mg/kg, male rats"}, "[12]": {"conditions": "Anatabine dose 0.1 mg/kg, female rats"}, "[13]": {"conditions": "Anatabine dose 0.1 mg/kg, male rats"}, "[14]": {"conditions": "Anatabine dose 0.75 mg/kg, 0.75 mg/kg, female rats"}, "[15]": {"conditions": "Anatabine dose 0.75 mg/kg, 0.75 mg/kg, male rats"}, "[16]": {"conditions": "Anatabine dose 0.75 mg/kg, female rats"}, "[17]": {"conditions": "Anatabine dose 0.75 mg/kg, male rats"}},
  "note": "Where “and” joins values, the source holds several entries; their conditions need not be identical. Equal entries are not always repeated.",
  "data": [
    {"molecule": "C1=CCC(c2cccnc2)NC1", "note": "(racemic) [Anatabine, 1,2,3,6-tetrahydro-[2,3′]bipyridinyl]", "values": [
      {"measurement": "Effect on TNFα-induced NFκB-mediated transcription of luciferase", "setting": "NFκB; HEK293 with NFκB luciferase reporter challenged with TNFα", "value": "reduce this transcription to control levels"},
      {"measurement": "IC50", "setting": "NFκB; Homo sapiens, 20 ng/ml TNFα, HEK293 NFκB luciferase", "value": "~600", "unit": "µg/mL"},
      {"measurement": "day 7 B.W.", "setting": "[1]; [5]", "value": 222.0, "unit": "g"},
      {"measurement": "day 12 B.W.", "setting": "[1]; [5]", "value": 240.0, "unit": "g"},
      {"measurement": "day 3 B.W.", "setting": "[1]; [6]", "value": 270.0, "unit": "g"},
      {"measurement": "day 4 B.W.", "setting": "[1]; [6]", "value": 270.0, "unit": "g"},
      {"measurement": "day 8 B.W.", "setting": "[1]; [6]", "value": 310.0, "unit": "g"},
      {"measurement": "day 9 B.W.", "setting": "[1]; [6]", "value": 310.0, "unit": "g"},
      {"measurement": "day 12 B.W.", "setting": "[1]; [6]", "value": 320.0, "unit": "g"},
      {"measurement": "day 13 B.W.", "setting": "[1]; [6]", "value": 360, "unit": "g"},
      {"measurement": "day 2 B.W.", "setting": "[1]; [7]", "value": 210.0, "unit": "g"},
      {"measurement": "day 4 B.W.", "setting": "[1]; [7]", "value": "230.0 g and 220.0 g"},
      {"measurement": "day 8 B.W.", "setting": "[1]; [7]", "value": 220.0, "unit": "g"},
      {"measurement": "day 2 B.W.", "setting": "[1]; [8]", "value": 240.0, "unit": "g"},
      {"measurement": "day 8 B.W.", "setting": "[1]; [8]", "value": 300.0, "unit": "g"},
      {"measurement": "day 13 B.W.", "setting": "[1]; [8]", "value": 330, "unit": "g"},
      {"measurement": "Mean weight increase by day 14", "setting": "[1]; single i.v. 0.1 mg/kg, female rats", "value": 39.0, "unit": "g"},
      {"measurement": "Mean weight increase by day 14", "setting": "[1]; [9]", "value": 132.5, "unit": "g"},
      {"measurement": "Mean food consumption/day", "setting": "[1]; [9]", "value": 31.0, "unit": "g"},
      {"measurement": "Mean food consumption/day", "setting": "[1]; single i.v. 0.1 mg/kg, male rats, listed as anatabine", "value": "statistically higher"},
      {"measurement": "Mean weight increase by day 14", "setting": "[1]; single i.v. 0.75 mg/kg anatabine, female rats", "value": 43.1, "unit": "g"},
      {"measurement": "Mean weight increase by day 14", "setting": "[1]; single i.v. 0.75 mg/kg anatabine, male rats", "value": 111.6, "unit": "g"},
      {"measurement": "Urinalysis KETONES", "setting": "[2]; Anatabine dose 0.1 mg/kg, 0.1 mg/kg", "value": "NEGATIVE"},
      {"measurement": "Urinalysis BILIRUBIN", "setting": "[2]; [10]", "value": "NEGATIVE"},
      {"measurement": "Urinalysis BLOOD", "setting": "[2]; [10]", "value": "NEG- (3×) and TRACE"},
      {"measurement": "Urinalysis PROTEIN", "setting": "[2]; [10]", "value": "NEG-"},
      {"measurement": "Urinalysis pH", "setting": "[2]; [10]", "value": "7.5 (2×) and 7 and 8"},
      {"measurement": "Urinalysis BILIRUBIN", "setting": "[2]; [11]", "value": "NEGATIVE"},
      {"measurement": "Urinalysis BLOOD", "setting": "[2]; [11]", "value": "TRACE (2×) and NEG-"},
      {"measurement": "Urinalysis PROTEIN", "setting": "[2]; [11]", "value": "TRACE (3×) and NEG-"},
      {"measurement": "Urinalysis pH", "setting": "[2]; [11]", "value": "8.5 and 7.5 (2×) and 7"},
      {"measurement": "Urinalysis CLARITY", "setting": "[2]; [12]", "value": "HAZY"},
      {"measurement": "Urinalysis COLOR", "setting": "[2]; [12]", "value": "YELLOW"},
      {"measurement": "Urinalysis GLUCOSE", "setting": "[2]; [12]", "value": "NEGATIVE"},
      {"measurement": "Urinalysis UROBILINOGEN", "setting": "[2]; [12]", "value": "NORMAL"},
      {"measurement": "Urinalysis VOLUME", "setting": "[2]; [12]", "value": "<0.5", "unit": "mL"},
      {"measurement": "Urinalysis CLARITY", "setting": "[2]; [13]", "value": "HAZY"},
      {"measurement": "Urinalysis COLOR", "setting": "[2]; [13]", "value": "YELLOW"},
      {"measurement": "Urinalysis GLUCOSE", "setting": "[2]; [13]", "value": "NEGATIVE"},
      {"measurement": "Urinalysis UROBILINOGEN", "setting": "[2]; [13]", "value": "NORMAL"},
      {"measurement": "Urinalysis VOLUME", "setting": "[2]; [13]", "value": "<0.5", "unit": "mL"},
      {"measurement": "Urinalysis CLARITY", "setting": "[2]; Anatabine dose 0.75 mg/kg", "value": "HAZY"},
      {"measurement": "Urinalysis COLOR", "setting": "[2]; Anatabine dose 0.75 mg/kg", "value": "YELLOW"},
      {"measurement": "Urinalysis VOLUME", "setting": "[2]; Anatabine dose 0.75 mg/kg", "value": "<0.5", "unit": "mL"},
      {"measurement": "Urinalysis PROTEIN", "setting": "[2]; Anatabine dose 0.75 mg/kg, 0.75 mg/kg", "value": "TRACE"},
      {"measurement": "Urinalysis BILIRUBIN", "setting": "[2]; [14]", "value": "NEGATIVE"},
      {"measurement": "Urinalysis BLOOD", "setting": "[2]; [14]", "value": "TRACE and NEG-"},
      {"measurement": "Urinalysis KETONES", "setting": "[2]; [14]", "value": "NEGATIVE"},
      {"measurement": "Urinalysis pH", "setting": "[2]; [14]", "value": "7.5 and 6 and 8 (2×)"},
      {"measurement": "Urinalysis BILIRUBIN", "setting": "[2]; [15]", "value": "NEGATIVE"},
      {"measurement": "Urinalysis BLOOD", "setting": "[2]; [15]", "value": "TRACE and NEG- (3×)"},
      {"measurement": "Urinalysis KETONES", "setting": "[2]; [15]", "value": "NEGATIVE"},
      {"measurement": "Urinalysis pH", "setting": "[2]; [15]", "value": 7},
      {"measurement": "Urinalysis GLUCOSE", "setting": "[2]; [16]", "value": "NEGATIVE"},
      {"measurement": "Urinalysis UROBILINOGEN", "setting": "[2]; [16]", "value": "NORMAL"},
      {"measurement": "Urinalysis GLUCOSE", "setting": "[2]; [17]", "value": "NEGATIVE"},
      {"measurement": "Urinalysis UROBILINOGEN", "setting": "[2]; [17]", "value": "NORMAL"},
      {"measurement": "urinalysis parameters vs controls", "setting": "[2]; rat, day 15 after single i.v. dose", "value": "no notable differences in any of the urinalysis parameters"},
      {"measurement": "physical signs post dose", "setting": "[3]", "value": "no obvious adverse signs were observed"},
      {"measurement": "agonist activity", "setting": "nAChR α7", "value": "showed agonist activity"},
      {"measurement": "BASOPHIL", "setting": "[4]; gender F", "value": 0.0, "unit": "%"},
      {"measurement": "EOSINOPHIL", "setting": "[4]; gender F", "value": 0.0, "unit": "%"},
      {"measurement": "MCV", "setting": "[4]; gender F", "value": 60.0, "unit": "fL"},
      {"measurement": "MONOCYTE", "setting": "[4]; gender F", "value": 1.8, "unit": "%"},
      {"measurement": "NEUTROPHIL SEG", "setting": "[4]; gender F", "value": 8.0, "unit": "%"},
      {"measurement": "PLATELET COUNT", "setting": "[4]; gender F", "value": 997300, "unit": "µL⁻¹"},
      {"measurement": "RBC", "setting": "[4]; gender F", "value": "7.8e+06", "unit": "µL⁻¹"},
      {"measurement": "RETICULOCYTE COUNT", "setting": "[4]; gender F", "value": 4.5, "unit": "%"},
      {"measurement": "WBC", "setting": "[4]; gender F", "value": 9300, "unit": "µL⁻¹"},
      {"measurement": "BASOPHIL", "setting": "[4]; gender M", "value": 0.0, "unit": "%"},
      {"measurement": "EOSINOPHIL", "setting": "[4]; gender M", "value": 0.2, "unit": "%"},
      {"measurement": "MONOCYTE", "setting": "[4]; gender M", "value": 2.0, "unit": "%"}
    ]}
  ]
}
